Key:
[1] = target: Serine/threonine-protein kinase pim-1 (Homo sapiens, UniProt P11309); experiment: Inhibition of PIM1 using BAD peptide as substrate preincubated for 15 mins measured after 60 to 100 mins by luminescence assay
[2] = target: Serine/threonine-protein kinase pim-3 (Homo sapiens, UniProt Q86V86); experiment: Inhibition of PIM3 using BAD peptide as substrate preincubated for 15 mins measured after 60 to 100 mins by luminescence assay
[3] = target: Serine/threonine-protein kinase pim-2 (Homo sapiens, UniProt Q9P1W9); experiment: Inhibition of PIM2 using BAD peptide as substrate preincubated for 15 mins measured after 60 to 100 mins by luminescence assay
Sequence of Serine/threonine-protein kinase pim-2 (Q9P1W9 whole entry): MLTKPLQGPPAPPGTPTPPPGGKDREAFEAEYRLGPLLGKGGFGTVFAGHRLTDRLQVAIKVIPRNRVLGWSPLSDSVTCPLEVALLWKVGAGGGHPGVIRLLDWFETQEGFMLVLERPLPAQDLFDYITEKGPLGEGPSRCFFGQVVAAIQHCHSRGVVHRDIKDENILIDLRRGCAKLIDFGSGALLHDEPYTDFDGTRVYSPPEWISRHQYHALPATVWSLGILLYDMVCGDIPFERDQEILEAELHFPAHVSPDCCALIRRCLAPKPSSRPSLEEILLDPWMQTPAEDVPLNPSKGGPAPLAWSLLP

[4] = Inhibition of PDGFR
[5] = target: Mast/stem cell growth factor receptor Kit (Homo sapiens, UniProt P10721); experiment: Inhibition of cKIT
Sequence of Mast/stem cell growth factor receptor Kit (P10721 whole entry): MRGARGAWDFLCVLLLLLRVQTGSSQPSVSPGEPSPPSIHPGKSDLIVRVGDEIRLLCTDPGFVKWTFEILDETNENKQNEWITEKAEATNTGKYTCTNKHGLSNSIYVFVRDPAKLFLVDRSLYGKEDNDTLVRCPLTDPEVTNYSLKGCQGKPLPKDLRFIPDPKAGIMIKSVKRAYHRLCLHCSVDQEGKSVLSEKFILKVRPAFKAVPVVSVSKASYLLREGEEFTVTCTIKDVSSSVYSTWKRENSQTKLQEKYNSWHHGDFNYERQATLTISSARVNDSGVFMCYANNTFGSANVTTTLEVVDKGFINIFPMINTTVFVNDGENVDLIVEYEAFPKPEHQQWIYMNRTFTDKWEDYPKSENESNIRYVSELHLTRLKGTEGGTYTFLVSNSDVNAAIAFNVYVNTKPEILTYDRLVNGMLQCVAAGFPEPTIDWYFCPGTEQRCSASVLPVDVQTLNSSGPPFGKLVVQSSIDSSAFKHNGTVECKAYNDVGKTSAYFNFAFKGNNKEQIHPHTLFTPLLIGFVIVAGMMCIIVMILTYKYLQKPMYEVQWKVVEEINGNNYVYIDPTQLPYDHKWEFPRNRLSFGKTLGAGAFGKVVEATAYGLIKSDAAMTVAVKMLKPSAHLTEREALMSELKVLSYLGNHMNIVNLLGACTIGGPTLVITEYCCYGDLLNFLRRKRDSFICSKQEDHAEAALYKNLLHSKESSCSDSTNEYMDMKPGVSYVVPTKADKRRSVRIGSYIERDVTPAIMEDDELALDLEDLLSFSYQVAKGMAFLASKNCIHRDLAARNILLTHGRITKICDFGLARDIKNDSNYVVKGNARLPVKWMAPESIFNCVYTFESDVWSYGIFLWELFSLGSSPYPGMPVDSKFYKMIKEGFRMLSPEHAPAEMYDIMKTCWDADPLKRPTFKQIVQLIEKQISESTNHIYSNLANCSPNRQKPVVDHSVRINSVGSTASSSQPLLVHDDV

[6] = target: T1, Receptor-type tyrosine-protein kinase FLT3 (Homo sapiens, UniProt P36888); experiment: Inhibition of FLT3
T1 sequence (P36888 whole entry): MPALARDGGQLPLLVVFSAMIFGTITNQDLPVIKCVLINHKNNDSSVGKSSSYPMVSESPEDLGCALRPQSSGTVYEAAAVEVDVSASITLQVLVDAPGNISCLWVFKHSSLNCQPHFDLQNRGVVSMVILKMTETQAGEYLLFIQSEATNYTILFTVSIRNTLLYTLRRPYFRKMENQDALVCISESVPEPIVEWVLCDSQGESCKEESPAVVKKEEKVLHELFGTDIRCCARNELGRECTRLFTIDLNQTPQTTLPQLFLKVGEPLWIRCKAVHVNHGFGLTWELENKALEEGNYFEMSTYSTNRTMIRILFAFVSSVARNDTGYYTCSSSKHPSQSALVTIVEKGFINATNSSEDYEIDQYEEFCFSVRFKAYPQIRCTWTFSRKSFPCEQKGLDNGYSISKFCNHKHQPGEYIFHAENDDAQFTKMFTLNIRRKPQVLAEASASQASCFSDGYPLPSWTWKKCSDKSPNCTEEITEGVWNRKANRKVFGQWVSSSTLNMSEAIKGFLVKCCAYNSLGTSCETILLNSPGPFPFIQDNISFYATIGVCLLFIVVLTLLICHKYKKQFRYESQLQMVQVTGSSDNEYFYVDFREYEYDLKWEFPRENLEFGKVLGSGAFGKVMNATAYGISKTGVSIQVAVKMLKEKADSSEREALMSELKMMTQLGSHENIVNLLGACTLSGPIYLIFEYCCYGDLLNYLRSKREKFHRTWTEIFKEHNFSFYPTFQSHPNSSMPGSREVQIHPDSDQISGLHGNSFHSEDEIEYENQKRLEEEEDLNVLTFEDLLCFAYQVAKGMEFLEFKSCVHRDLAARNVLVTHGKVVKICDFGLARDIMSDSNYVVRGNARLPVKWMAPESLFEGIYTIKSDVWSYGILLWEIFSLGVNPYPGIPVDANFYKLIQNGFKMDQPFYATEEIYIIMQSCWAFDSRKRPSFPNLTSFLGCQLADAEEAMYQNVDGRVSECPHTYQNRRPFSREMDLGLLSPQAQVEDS

[7] = target: Vascular endothelial growth factor receptor 2 (Homo sapiens, UniProt P35968); experiment: Inhibition of KDR
Sequence of Vascular endothelial growth factor receptor 2 (P35968 whole entry): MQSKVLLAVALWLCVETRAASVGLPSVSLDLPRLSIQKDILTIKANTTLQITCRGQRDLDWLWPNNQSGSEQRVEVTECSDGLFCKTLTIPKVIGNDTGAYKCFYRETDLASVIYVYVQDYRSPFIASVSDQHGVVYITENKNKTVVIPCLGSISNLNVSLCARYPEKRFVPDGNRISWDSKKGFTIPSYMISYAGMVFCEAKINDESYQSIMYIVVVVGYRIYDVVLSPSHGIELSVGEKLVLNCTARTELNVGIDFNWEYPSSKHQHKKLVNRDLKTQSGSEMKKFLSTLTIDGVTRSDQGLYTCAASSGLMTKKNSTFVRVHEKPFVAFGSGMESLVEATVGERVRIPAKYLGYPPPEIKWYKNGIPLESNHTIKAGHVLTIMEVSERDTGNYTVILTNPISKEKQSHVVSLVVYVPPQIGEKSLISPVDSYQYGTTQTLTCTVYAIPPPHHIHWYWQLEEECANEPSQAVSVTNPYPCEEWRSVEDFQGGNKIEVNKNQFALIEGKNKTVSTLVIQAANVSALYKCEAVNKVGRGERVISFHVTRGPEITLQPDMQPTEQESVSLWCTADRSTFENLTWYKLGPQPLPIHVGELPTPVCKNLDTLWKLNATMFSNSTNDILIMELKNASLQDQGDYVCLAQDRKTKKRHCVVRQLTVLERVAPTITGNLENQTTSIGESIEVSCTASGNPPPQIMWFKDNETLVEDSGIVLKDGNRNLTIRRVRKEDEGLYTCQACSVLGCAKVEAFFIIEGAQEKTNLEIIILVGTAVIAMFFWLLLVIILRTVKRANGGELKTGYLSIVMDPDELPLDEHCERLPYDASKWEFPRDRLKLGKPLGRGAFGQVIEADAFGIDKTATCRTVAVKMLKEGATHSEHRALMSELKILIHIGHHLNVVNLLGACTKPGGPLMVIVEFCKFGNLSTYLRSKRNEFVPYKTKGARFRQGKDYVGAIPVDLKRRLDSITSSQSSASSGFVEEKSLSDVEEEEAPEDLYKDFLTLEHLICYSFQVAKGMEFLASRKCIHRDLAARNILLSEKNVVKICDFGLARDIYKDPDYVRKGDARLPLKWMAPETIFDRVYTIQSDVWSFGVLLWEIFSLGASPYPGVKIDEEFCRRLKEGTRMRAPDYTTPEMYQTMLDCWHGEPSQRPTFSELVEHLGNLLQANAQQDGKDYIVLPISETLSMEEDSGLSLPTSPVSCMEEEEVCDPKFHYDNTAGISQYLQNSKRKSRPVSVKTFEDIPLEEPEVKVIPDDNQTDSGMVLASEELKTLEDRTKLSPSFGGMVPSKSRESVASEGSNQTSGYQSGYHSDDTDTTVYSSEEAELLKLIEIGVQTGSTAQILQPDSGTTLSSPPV

Sequence of Serine/threonine-protein kinase pim-1 (P11309 whole entry): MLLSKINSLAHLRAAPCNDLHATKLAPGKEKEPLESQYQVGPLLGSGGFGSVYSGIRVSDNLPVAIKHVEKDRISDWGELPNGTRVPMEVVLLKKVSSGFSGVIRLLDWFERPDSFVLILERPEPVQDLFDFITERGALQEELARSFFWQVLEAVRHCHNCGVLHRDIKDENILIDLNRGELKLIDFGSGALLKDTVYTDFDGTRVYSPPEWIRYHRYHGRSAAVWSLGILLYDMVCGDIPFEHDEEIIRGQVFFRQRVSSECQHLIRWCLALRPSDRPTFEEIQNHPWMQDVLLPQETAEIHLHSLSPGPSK

Row | IC50 [1] | IC50 [2] | IC50 [3] | IC50 [4] | IC50 [5] | IC50 [6] | IC50 [7] | SMILES
1 | 0.11 µM | 0.26 µM | 0.65 µM |  |  |  |  | c1cc(-c2ccc3c(-c4ccc(N5CCNCC5)cc4)n[nH]c3n2)c2cc[nH]c2c1
2 | < 0.002 µM | < 0.002 µM | 0.056 µM |  |  |  |  | C[C@H](N)COc1cncc(-c2ccc3[nH]cc(-c4ccc(N)nc4F)c3c2)n1
3 | 0.192 µM | 0.49 µM | 15 µM |  |  |  |  | c1cncc(-c2ccc3[nH]cc(-c4ccc(N5CCNCC5)cc4)c3c2)c1
4 | 0.009 µM | 0.012 µM | 0.039 µM | 0.006 µM | 0.007 µM | 0.004 µM | 0.018 µM | Oc1ccc(-c2ccc3c(-c4ccc(N5CCNCC5)cc4)n[nH]c3n2)cc1
5 | < 0.002 µM | < 0.002 µM | 0.01 µM |  |  |  |  | Nc1ccc(-c2c[nH]c3ccc(-c4cncc(OC[C@@H](N)c5ccccc5)n4)cc23)c(F)n1
6 | 0.53 µM | 0.96 µM | 13.6 µM |  |  |  |  | c1cnc(-c2ccc3[nH]cc(-c4ccc(N5CCNCC5)cc4)c3c2)cn1
7 | 0.03 µM | 0.058 µM | 0.283 µM | 0.987 µM | 1.11 µM | 0.111 µM | 4.76 µM | Oc1ccc(-c2ccc3c(-c4ccc(N5CCNCC5)cc4)c[nH]c3n2)cc1
8 | 2.5 µM | 5.8 µM | > 25 µM |  |  |  |  | c1cc(-c2ccc3c(-c4ccc(N5CCNCC5)cc4)n[nH]c3n2)ccn1
9 | 2.8 µM | 5.7 µM | > 25 µM |  |  |  |  | c1cc(-c2ccc3[nH]cc(-c4ccc(N5CCNCC5)cc4)c3c2)ccn1
10 | < 0.002 µM | 0.005 µM | 0.083 µM |  |  |  |  | Nc1ccc(-c2c[nH]c3ccc(-c4cncc(O[C@H]5CC[C@H](N)CC5)n4)cc23)c(F)n1
11 | < 0.002 µM | 0.006 µM | 0.072 µM |  |  |  |  | CC(C)[C@H](N)COc1cncc(-c2ccc3[nH]cc(-c4ccc(N)nc4F)c3c2)n1
12 | 0.004 µM | 0.022 µM | 0.042 µM |  | > 25 µM | > 25 µM | > 25 µM | Oc1ccc(-c2ccc3c(-c4ccc(N5CCNCC5)cc4)c[nH]c3c2)cc1
13 | < 0.002 µM | 0.004 µM | 0.061 µM |  |  |  |  | Nc1ccc(-c2c[nH]c3ccc(-c4cncc(N5CCNCC5)n4)cc23)c(F)n1
14 | 2.1 µM | 14 µM | > 25 µM |  |  |  |  | c1ccc(-c2ccc3[nH]cc(-c4ccc(N5CCNCC5)cc4)c3c2)nc1
15 | 0.25 µM | 0.31 µM | 5 µM |  |  |  |  | Nc1ccc(-c2c[nH]c3ccc(-c4cnccn4)cc23)c(F)n1
16 | < 0.002 µM | 0.003 µM | 0.081 µM |  |  |  |  | Nc1ccc(-c2c[nH]c3ccc(-c4cncc(N5CCCC(N)C5)n4)cc23)c(F)n1 (stereo unspecified)
17 | 1.7 µM | 7.4 µM | 7.2 µM |  |  |  |  | c1ccc(-c2ccc3c(-c4ccc(N5CCNCC5)cc4)n[nH]c3n2)cc1
18 | 4.9 µM | 12.8 µM | > 25 µM |  |  |  |  | COc1ccc(-c2ccc3c(-c4ccc(N5CCNCC5)cc4)n[nH]c3n2)cc1
19 | < 0.002 µM | 0.005 µM | 0.02 µM |  |  |  |  | Nc1ccc(-c2c[nH]c3ccc(-c4cncc(OC[C@H](N)c5ccccc5)n4)cc23)c(F)n1
20 | < 0.002 µM | 0.005 µM | 0.026 µM |  |  |  |  | CC[C@H](N)COc1cncc(-c2ccc3[nH]cc(-c4ccc(N)nc4F)c3c2)n1
21 | < 0.002 µM | 0.01 µM | 0.122 µM |  |  |  |  | CC(C)(C)[C@H](N)COc1cncc(-c2ccc3[nH]cc(-c4ccc(N)nc4F)c3c2)n1
22 | 11 µM | 10 µM | > 25 µM |  |  |  |  | NS(=O)(=O)c1ccc(-c2ccc3c(-c4ccc(N5CCNCC5)cc4)n[nH]c3n2)cc1
23 | 0.17 µM | 1.8 µM | 20 µM |  |  |  |  | Nc1cc(-c2ccc3c(-c4ccc(N5CCNCC5)cc4)n[nH]c3n2)ccn1
24 | 15 µM | 12 µM | > 25 µM |  |  |  |  | Nc1ccc(-c2ccc3c(-c4ccc(N5CCNCC5)cc4)n[nH]c3n2)cn1
25 | 2.6 µM | 3.3 µM | > 25 µM |  |  |  |  | c1ncc(-c2ccc3[nH]cc(-c4ccc(N5CCNCC5)cc4)c3c2)cn1

Source: ChEMBL document CHEMBL1909629, “Discovery of novel 3,5-disubstituted indole derivatives as potent inhibitors of Pim-1, Pim-2, and Pim-3 protein kinases” (Bioorg Med Chem Lett, 2011)
